Active and inactive are the calls of the source. The rule behind the calls is not given here.
Legend:
[1] = tested on: RPMI-8226; experiment: Induction of apoptosis in human RPMI-8226 cells assessed as late apoptotic cells at 0.1 uM incubated for 24 hrs by Annexin V-FITC/PI staining based flow cytometry (reference value: 2.78 %); format: functional
[2] = Toxicity in Balb/c nude mouse xenografted with human RPMI-8226 cells assessed as adverse effect on serum AST level at 10 to 40 mg/kg, po qd for 21 days administered consecutively; format: organism-based; details: in vivo, 504 h, dose 10-40 mg/kg, time 21 day
[3] = biological target: T1, Protein deacetylase HDAC6 (Homo sapiens) (UniProt Q9UBN7); experiment: Inhibition of HDAC6 in human RPMI-8226 cells assessed as increase in Ac-alpha-tubulin expression at 0.5 to 2.5 uM incubated for 24 hrs by Western blot analysis; format: cell-based; details: dose 0.5-2.5 µM
T1 sequence (whole entry): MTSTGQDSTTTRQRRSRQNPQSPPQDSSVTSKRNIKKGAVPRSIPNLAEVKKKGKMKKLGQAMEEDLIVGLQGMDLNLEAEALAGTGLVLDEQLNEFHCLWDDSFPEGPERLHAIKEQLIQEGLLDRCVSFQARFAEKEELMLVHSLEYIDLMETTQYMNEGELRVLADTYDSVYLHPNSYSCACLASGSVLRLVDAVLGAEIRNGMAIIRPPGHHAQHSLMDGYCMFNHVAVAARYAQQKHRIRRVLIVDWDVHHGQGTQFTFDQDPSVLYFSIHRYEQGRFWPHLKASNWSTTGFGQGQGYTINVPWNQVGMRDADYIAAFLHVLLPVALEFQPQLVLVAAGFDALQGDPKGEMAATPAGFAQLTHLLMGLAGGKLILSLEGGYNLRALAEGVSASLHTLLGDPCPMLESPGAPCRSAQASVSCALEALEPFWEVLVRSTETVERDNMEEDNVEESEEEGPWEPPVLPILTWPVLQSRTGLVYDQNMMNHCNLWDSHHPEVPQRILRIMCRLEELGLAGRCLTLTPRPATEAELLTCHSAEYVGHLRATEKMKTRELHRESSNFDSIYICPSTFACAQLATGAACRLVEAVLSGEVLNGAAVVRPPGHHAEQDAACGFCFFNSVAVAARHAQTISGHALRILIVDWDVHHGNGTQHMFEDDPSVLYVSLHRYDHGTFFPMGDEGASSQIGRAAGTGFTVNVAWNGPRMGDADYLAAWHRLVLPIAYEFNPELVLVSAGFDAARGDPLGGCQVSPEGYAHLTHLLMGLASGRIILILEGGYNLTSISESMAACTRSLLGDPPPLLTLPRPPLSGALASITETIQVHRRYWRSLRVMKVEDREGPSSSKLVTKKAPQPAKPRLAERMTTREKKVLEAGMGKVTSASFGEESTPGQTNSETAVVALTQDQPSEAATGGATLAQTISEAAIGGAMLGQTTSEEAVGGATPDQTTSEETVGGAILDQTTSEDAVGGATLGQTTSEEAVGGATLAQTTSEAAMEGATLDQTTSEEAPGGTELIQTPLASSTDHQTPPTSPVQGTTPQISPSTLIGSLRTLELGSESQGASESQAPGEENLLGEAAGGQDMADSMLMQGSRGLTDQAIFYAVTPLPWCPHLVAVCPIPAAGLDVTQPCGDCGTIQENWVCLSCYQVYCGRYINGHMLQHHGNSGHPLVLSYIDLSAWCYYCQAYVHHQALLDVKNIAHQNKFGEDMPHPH

[4] = tested on: RPMI-8226; experiment: Induction of cell cycle arrest at G1 phase in human RPMI-8226 cells at 2.5 uM incubated for 24 hrs by PI staining based flow cytometry (reference value: 19.2 %); format: functional
[5] = tested on: RPMI-8226; experiment: cells; details: Homo sapiens, RPMI-8226, 24 h
[6] = Toxicity in Balb/c nude mouse xenografted with human RPMI-8226 cells assessed as adverse effect on liver at 10 to 40 mg/kg, po qd for 21 days administered consecutively by H and E staining based analysis; format: organism-based; details: in vivo, 504 h, dose 10-40 mg/kg, time 21 day
[7] = tested on: RPMI-8226; experiment: Upregulation of Ac-alpha-tubulin expression in human RPMI-8226 cells at 0.1 uM incubated for 24 hrs by Western blot analysis; format: functional, cell-based
[8] = tested on: RPMI-8226; experiment: Induction of apoptosis in human RPMI-8226 cells assessed as increase in Bax expression at 0.1 to 2.5 uM incubated for 24 hrs by Western blot analysis; format: functional, cell-based; details: dose 0.1-2.5 µM
[9] = tested on: RPMI-8226; experiment: Induction of apoptosis in human RPMI-8226 cells assessed as viable cells at 0.1 uM incubated for 24 hrs by Annexin V-FITC/PI staining based flow cytometry (reference value: 90.98 %); format: functional; details: read-out: Activity
[10] = tested on: RPMI-8226; experiment: Induction of apoptosis in human RPMI-8226 cells assessed as late apoptotic cells at 0.5 uM incubated for 24 hrs by Annexin V-FITC/PI staining based flow cytometry (reference value: 2.78 %); format: functional
[11] = tested on: RPMI-8226; experiment: Induction of apoptosis in human RPMI-8226 cells assessed as viable cells at 0.5 uM incubated for 24 hrs by Annexin V-FITC/PI staining based flow cytometry (reference value: 90.98 %); format: functional; details: read-out: Activity
[12] = biological target: T2, Protein deacetylase HDAC6 (Homo sapiens, UniProt Q9UBN7); experiment: Inhibition of HDAC6 (unknown origin) preincubated for 10 mins followed by substrate addition measured for 1 hr by fluorescence based assay
T2 sequence (Q9UBN7 whole entry): T1 sequence (whole entry)

[13] = tested on: RPMI-8226; experiment: Effect on Ac-H4 expression in human RPMI-8226 cells at 0.1 to 2.5 uM incubated for 24 hrs by Western blot analysis; format: functional, cell-based; details: dose 0.1-2.5 µM
[14] = tested on: RPMI-8226; experiment: Antitumor activity against human RPMI-8226 cells xenografted in Balb/c nude mouse assessed as ratio of tumor to control at 40 mg/kg, po qd for 21 days administered consecutively relative to control; format: functional; details: time 21 day
[15] = tested on: RPMI-8226; experiment: Induction of cell cycle arrest at G2 phase in human RPMI-8226 cells at 0.1 uM incubated for 24 hrs by PI staining based flow cytometry (reference value: 18.3 %); format: functional
[16] = tested on: RPMI-8226; experiment: Induction of cell cycle arrest at G1 phase in human RPMI-8226 cells at 0.5 uM incubated for 24 hrs by PI staining based flow cytometry (reference value: 19.2 %); format: functional
[17] = tested on: RPMI-8226; experiment: Induction of cell cycle arrest at G1 phase in human RPMI-8226 cells at 0.1 uM incubated for 24 hrs by PI staining based flow cytometry (reference value: 19.2 %); format: functional
[18] = tested on: RPMI-8226; experiment: Induction of apoptosis in human RPMI-8226 cells assessed as necrotic cells at 0.5 uM incubated for 24 hrs by Annexin V-FITC/PI staining based flow cytometry (reference value: 0.90 %); format: functional
[19] = tested on: RPMI-8226; experiment: Induction of apoptosis in human RPMI-8226 cells assessed as decrease in […] expression at 0.1 to 2.5 uM incubated for 24 hrs by Western blot analysis; format: functional, cell-based; details: dose 0.1-2.5 µM
[20] = tested on: HCT-116; experiment: Cytotoxicity against human HCT-116 cells assessed as inhibition of cell viability incubated for 24 hrs by CCK8 assay; format: functional, cell-based; details: HCT-116, 24 h
[21] = tested on: MDA-MB-468; experiment: cells; details: Homo sapiens, MDA-MB-468, 24 h

**Q.** What does the source list for `Cn1c([C@@H](Cc2ccccc2)NCc2ccccc2)nc2cc(C(=O)NO)ccc21`?
**A.** Activity [1]: 4.28%; Activity [2]: Non-Toxic; inhibition [3]: Active; Activity [4]: 26.8%; IC50 [5]: 0.528 µM; Activity [6]: Non-Toxic; Activity [7]: inactive; Activity [8]: Active; viability at 0.1 µM [9]: 82.5%; Activity [10]: 4.24%; viability at 0.5 µM [11]: 81.2%; IC50 [12]: 0.00463 µM; Activity [13]: inactive; T/C [14]: 34.8%; Activity [15]: 21.1%; Activity [16]: 24.5%; Activity [17]: 18.2%; Activity [18]: 0.53%; Activity [19]: Active; IC50 [20]: 15.2 µM; IC50 [21]: > 50 µM
